Laboratory results: the NIST ThermoML archive (doi:10.1021/je049908l)
± gives the expanded uncertainty stated by the source.

Legend:
[1] = Molar enthalpy of transition or fusion; conditions: Crystal; DSC
[2] = Crystal; DTA

NC(C(=O)O)c1ccc(O)cc1.O=S(=O)(O)O (racemic) [DL-p-hydroxyphenylglycine sulfate]
Molar enthalpy of transition or fusion [1]: 10.7 ± 0.693 kcal/mol | Normal melting temperature [2]: 71.80 ± 2.1 °C
